For this experiment, the system named is MX-1 breast xenograft, nude mice, tumor weight T/C. The experiment is described as follows: NCI In Vivo Anticancer Drug Screen. Data for tumor model Human Mammary Carcinoma MX-1 Xenograft (intrarenal inoculation) in NU/NU Swiss (nude) mice. To be noted: endpoint: mean tumor weight change, higher = larger tumour. The procedure, abridged: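 Compound dosed to mice with transplantable tumor; vehicle group as control. Endpoint survival or tumour size, reported as T/C.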

The mark [1] stands for this setting: dose: 2400.0 mg/kg/injection, schedule: Q04DX003 (sc), vehicle: Klucel (hydroxypropylcellulose) (HPC).
[2] abbreviates: dose: 50.0 mg/kg/injection, schedule: Q01DX010 (sc), vehicle: saline.
Setting [3] is: dose: 800.0 mg/kg/injection, schedule: Q01DX010 (sc), vehicle: Klucel (hydroxypropylcellulose) (HPC).
[4] abbreviates: dose: 200.0 mg/kg/injection, schedule: Q01DX010 (sc), vehicle: saline.
Where [5] appears, read: dose: 400.0 mg/kg/injection, schedule: Q01DX010 (sc), vehicle: saline.

The structures appear in SMILES notation. Several values for one entry are separate records, joined by “and”; a condition that tells them apart may be missing. Identical values can stand only once. Records with an inconclusive call do not appear.

For `CCCCCCCCCCCCCCC/C([O-])=N/[N+](C)(C)CC(C)O` (stereo unspecified), the T/C was 95 % of control (dose: 200.0 mg/kg/injection, schedule: Q04DX003 (sc), vehicle: Klucel (hydroxypropylcellulose) (HPC)); 100 % of control (dose: 800.0 mg/kg/injection, schedule: Q04DX003 (sc), vehicle: Klucel (hydroxypropylcellulose) (HPC)); 91 % of control (dose: 1600.0 mg/kg/injection, schedule: Q04DX003 (sc), vehicle: Klucel (hydroxypropylcellulose) (HPC)); 63 % of control under setting [1].
On to `C=CS(=O)(=O)c1ccccc1`, for which the T/C runs as follows: under setting [2], 91 % of control; (dose: 100.0 mg/kg/injection, schedule: Q01DX010 (sc), vehicle: saline) 81 % of control.
Consider `Cc1cc(C)c(-c2cc(O)c(C)cc2O)c(C)c1`, for which the T/C runs as follows: (dose: 300.0 mg/kg/injection, schedule: Q04DX003 (sc), vehicle: Klucel (hydroxypropylcellulose) (HPC)) 588 % of control; (dose: 600.0 mg/kg/injection, schedule: Q04DX003 (sc), vehicle: Klucel (hydroxypropylcellulose) (HPC)) 557 % of control; (dose: 1200.0 mg/kg/injection, schedule: Q04DX003 (sc), vehicle: Klucel (hydroxypropylcellulose) (HPC)) 388 % of control; under setting [1], 420 % of control.
For the compound `CC(C)NC(=O)OCc1c(COC(=O)NC(C)C)c(-c2ccc(Cl)c(Cl)c2)n2c1CCC2`, the T/C runs as follows: (dose: 25.0 mg/kg/injection, schedule: Q01DX010 (sc), vehicle: distilled water + Tween-80) -21 % of control; (dose: 50.0 mg/kg/injection, schedule: Q01DX010 (sc), vehicle: distilled water + Tween-80) 16 % of control; (dose: 150.0 mg/kg/injection, schedule: Q04DX003 (ip), vehicle: saline) 21 % of control; (dose: 300.0 mg/kg/injection, schedule: Q04DX003 (ip), vehicle: saline) 28 % of control.
In the case of `CC(=O)OCC1OC(OC2=C(CC=C(C)C)C(=O)c3ccccc3C2=O)C(OC(C)=O)C(OC(C)=O)C1OC(C)=O` (stereo unspecified), the T/C runs as follows: (dose: 400.0 mg/kg/injection, schedule: Q01DX010 (sc), vehicle: Klucel (hydroxypropylcellulose) (HPC)) 194 % of control; under setting [3], 52 % of control.
As to `COc1nc(C(Cl)(Cl)Cl)c(Cl)c(OC)c1Cl`, the T/C (dose: 75.0 mg/kg/injection, schedule: Q04DX003 (ip), vehicle: Klucel (hydroxypropylcellulose) (HPC)) is 33 % of control; the T/C (dose: 150.0 mg/kg/injection, schedule: Q04DX003 (ip), vehicle: Klucel (hydroxypropylcellulose) (HPC)) was -28 % of control; the T/C (dose: 150.0 mg/kg/injection, schedule: Q04DX003 (oral), vehicle: Klucel (hydroxypropylcellulose) (HPC)) was -33 % of control; the T/C (dose: 300.0 mg/kg/injection, schedule: Q04DX003 (ip), vehicle: Klucel (hydroxypropylcellulose) (HPC)) is 10 % of control; the T/C (dose: 300.0 mg/kg/injection, schedule: Q04DX003 (oral), vehicle: Klucel (hydroxypropylcellulose) (HPC)) is -15 % of control.
As for `OC(CBr)C(O)C(O)C(O)CBr` (stereo unspecified), the T/C was 39 % of control and 42 % of control (dose: 15.0 mg/kg/injection, schedule: Q01DX010 (sc), vehicle: Klucel (hydroxypropylcellulose) (HPC)); -100 % of control under setting [3]; -87 % of control (dose: 1600.0 mg/kg/injection, schedule: Q01DX010 (sc), vehicle: Klucel (hydroxypropylcellulose) (HPC)).
In the case of `Nc1n[nH]c(N)n1`, the T/C under setting [4] was 92 % of control; the T/C under setting [5] is 94 % of control; the T/C (dose: 800.0 mg/kg/injection, schedule: Q01DX010 (sc), vehicle: saline) was 111 % of control.
With `CC(=O)OCc1cc(=O)n(C)c2c3c4c(cc12)c(C)cc(=O)n4CO3`, the T/C reads like this: (dose: 50.0 mg/kg/injection, schedule: Q01DX010 (sc), vehicle: Klucel (hydroxypropylcellulose) (HPC)) 120 % of control; (dose: 100.0 mg/kg/injection, schedule: Q01DX010 (sc), vehicle: Klucel (hydroxypropylcellulose) (HPC)) 92 % of control.
Consider `O=P1(N(CCCl)CCCl)NCCCO1` (stereo unspecified), for which the T/C by setting is: (dose: 6.25 mg/kg/injection, schedule: Q01DX010 (ip), vehicle: saline) 82 % of control; (dose: 6.25 mg/kg/injection, schedule: Q01DX010 (sc), vehicle: saline) 56 % of control; (dose: 12.5 mg/kg/injection, schedule: Q01DX010 (ip), vehicle: saline) -29 % of control; (dose: 20.8 mg/kg/injection, schedule: Q04DX003 (ip), vehicle: saline) 8 % of control; (dose: 25.0 mg/kg/injection, schedule: Q01DX010 (ip), vehicle: saline) -83 % of control; (dose: 25.0 mg/kg/injection, schedule: Q01DX010 (sc), vehicle: saline) -65 % of control and -47 % of control. The T/C is, setting by setting: (dose: 41.66 mg/kg/injection, schedule: Q04DX003 (ip), vehicle: saline) -6 % of control; (dose: 41.66 mg/kg/injection, schedule: Q04DX003 (sc), vehicle: saline) -53 % of control; under setting [2], -93 % of control.
Consider `O=C1OC(C(O)CO)C(O)=C1O` (stereo unspecified), for which the T/C reads like this: under setting [4], 107 % of control; under setting [5], 110 % of control; (dose: 1600.0 mg/kg/injection, schedule: Q01DX010 (sc), vehicle: saline) 121 % of control.
As for `COCCCNC1=C(C#N)C(=O)NC(c2cccc([N+](=O)[O-])c2)S1` (stereo unspecified), the T/C is, setting by setting: (dose: 300.0 mg/kg/injection, schedule: Q04DX003 (sc), vehicle: saline with Tween-80) 96 % of control; (dose: 600.0 mg/kg/injection, schedule: Q04DX003 (sc), vehicle: saline with Tween-80) 101 % of control; (dose: 1200.0 mg/kg/injection, schedule: Q04DX003 (sc), vehicle: saline with Tween-80) 56 % of control; (dose: 2400.0 mg/kg/injection, schedule: Q04DX003 (sc), vehicle: saline with Tween-80) 95 % of control.
Regarding `F[B-](F)(F)F`, the T/C was 106 % of control (dose: 300.0 mg/kg/injection, schedule: Q04DX003 (sc), vehicle: gum acacia); 104 % of control (dose: 600.0 mg/kg/injection, schedule: Q04DX003 (sc), vehicle: gum acacia); 70 % of control (dose: 1200.0 mg/kg/injection, schedule: Q04DX003 (sc), vehicle: gum acacia).
On to `O=C(O)C1CSCN1` (stereo unspecified), for which, for the setting “dose: 50.0 mg/kg/injection, schedule: Q01DX010 (sc), vehicle: water”, the T/C was 176 % of control.
In the case of `O=C1C2(Cl)C3(Cl)C4(Cl)C(Cl)(Cl)C5(Cl)[C@]3(Cl)C1(Cl)[C@]5(Cl)C24Cl` (stereo partly specified), the T/C runs as follows: (dose: 37.5 mg/kg/injection, schedule: Q04DX003 (sc), vehicle: Klucel (hydroxypropylcellulose) (HPC)) 120 % of control; (dose: 75.0 mg/kg/injection, schedule: Q04DX003 (sc), vehicle: Klucel (hydroxypropylcellulose) (HPC)) 121 % of control.
In the case of `C[n+]1c(-c2cccc(OCCOCCOc3cccc(-c4c5cc(N)ccc5c5ccc(N)cc5[n+]4C)c3)c2)c2cc(N)ccc2c2ccc(N)cc21`, the T/C (dose: 4.0 mg/kg/injection, schedule: Q04DX003 (sc), vehicle: water) is 92 % of control and the T/C (dose: 64.0 mg/kg/injection, schedule: Q04DX003 (sc), vehicle: water) was 73 % of control.
On to `CC(=O)Oc1c(C)[nH]ccc1=O`, for which the T/C by setting is: (dose: 200.0 mg/kg/injection, schedule: Q04DX003 (sc), vehicle: suspension in saline) 72 % of control; (dose: 400.0 mg/kg/injection, schedule: Q04DX003 (sc), vehicle: suspension in saline) 87 % of control; (dose: 800.0 mg/kg/injection, schedule: Q04DX003 (sc), vehicle: suspension in saline) 79 % of control.
Regarding `Nc1nc2n[nH]nc2c(=O)[nH]1`, the T/C (dose: 75.0 mg/kg/injection, schedule: Q04DX003 (ip), vehicle: suspension in saline) was 22 % of control and 46 % of control; the T/C (dose: 75.0 mg/kg/injection, schedule: Q04DX003 (sc), vehicle: suspension in saline) is 35 % of control; the T/C (dose: 150.0 mg/kg/injection, schedule: Q04DX003 (ip), vehicle: suspension in saline) is 6 % of control; the T/C (dose: 150.0 mg/kg/injection, schedule: Q04DX003 (sc), vehicle: suspension in saline) was 18 % of control; the T/C (dose: 300.0 mg/kg/injection, schedule: Q04DX003 (ip), vehicle: suspension in saline) is 1 % of control; the T/C (dose: 600.0 mg/kg/injection, schedule: Q04DX003 (sc), vehicle: suspension in saline) was -77 % of control.
As for `CN(C)c1ccc(C(=C2C=CC(=[N+](C)C)C=C2)c2ccc(N(C)C)cc2)cc1` (tested in a mixture with another compound), the T/C is, setting by setting: (dose: 15.0 mg/kg/injection, schedule: Q04DX003 (sc), vehicle: saline with Tween-80) 70 % of control; (dose: 30.0 mg/kg/injection, schedule: Q04DX003 (sc), vehicle: saline with Tween-80) 104 % of control; (dose: 60.0 mg/kg/injection, schedule: Q04DX003 (sc), vehicle: saline with Tween-80) 97 % of control; (dose: 120.0 mg/kg/injection, schedule: Q04DX003 (sc), vehicle: saline with Tween-80) 82 % of control.

Source of the values: PubChem BioAssay AID296 (DTP/NCI, 2004).
